{
  "source": "patent US5961482A",
  "about": "“Iontotherapeutic device and process and iontotherapeutic unit dose” (Rutgers, The State University Of New Jersey, priority 1996, dated 1999)",
  "key": {"[1]": {"details": "for Cumulative Amount of Drug Absorbed: donor 6.2 mg/ml pH 9.0, 37° C."}, "[2]": {"details": "for Tlag: printed beside pH 4.0 value"}},
  "note": "Structures can show the parent of a compound that is named as a salt. Where two headings read alike, the source gives them in different places.",
  "data": [
    {"smiles": "COc1ccc2c(c1)c(CC(=O)O)c(C)n2C(=O)c1ccc(Cl)cc1", "note": "[Indomethacin, indomethacin]", "values": [
      {"measurement": "Skin Permeation Rate", "setting": "[1]; No TPIS, pH 5.5", "value": 1.47, "unit": "mcg/cm^2 /hr"},
      {"measurement": "Skin Permeation Rate", "setting": "[1]; With TPIS (1.2 mA, 5 min/hr for 7 hours, 2000 Hz, square, on/off 2/1), pH 2.5", "value": 0.76, "unit": "mcg/cm^2 /hr"},
      {"measurement": "Skin Permeation Rate", "setting": "[1]; With TPIS (1.2 mA, 5 min/hr for 7 hours, 2000 Hz, square, on/off 2/1), pH 4.5", "value": 0.44, "unit": "mcg/cm^2 /hr"},
      {"measurement": "Skin Permeation Rate", "setting": "[1]; With TPIS (1.2 mA, 5 min/hr for 7 hours, 2000 Hz, square, on/off 2/1), pH 5.5", "value": 6.30, "unit": "mcg/cm^2 /hr"}
    ]},
    {"smiles": "CN(C)[C@@H]1C(=O)C(C(N)=O)=C(O)[C@@]2(O)C(=O)C3=C(O)c4c(O)cccc4[C@@](C)(O)[C@H]3C[C@@H]12", "note": "[Tetracycline HCl, tetracycline HCl]", "values": [
      {"measurement": "Cumulative Amount of Drug Absorbed", "setting": "[1]; No TPIS, 1.25 hrs", "value": 0.0180, "unit": "mcg/cm^2"},
      {"measurement": "Cumulative Amount of Drug Absorbed", "setting": "[1]; No TPIS, 2.25 hrs", "value": 0.0550, "unit": "mcg/cm^2"},
      {"measurement": "Cumulative Amount of Drug Absorbed", "setting": "[1]; No TPIS, 3.25 hrs", "value": 0.0650, "unit": "mcg/cm^2"},
      {"measurement": "Cumulative Amount of Drug Absorbed", "setting": "[1]; No TPIS, 4.25 hrs", "value": 0.1450, "unit": "mcg/cm^2"},
      {"measurement": "Cumulative Amount of Drug Absorbed", "setting": "[1]; No TPIS, 5.25 hrs", "value": 0.3040, "unit": "mcg/cm^2"},
      {"measurement": "Cumulative Amount of Drug Absorbed", "setting": "[1]; With TPIS (1 mA, 10 min/hr, 2000 Hz, square, on/off 4/1), 1.25 hrs", "value": 0.1765, "unit": "mcg/cm^2"},
      {"measurement": "Cumulative Amount of Drug Absorbed", "setting": "[1]; With TPIS (1 mA, 10 min/hr, 2000 Hz, square, on/off 4/1), 2.25 hrs", "value": 0.2555, "unit": "mcg/cm^2"},
      {"measurement": "Cumulative Amount of Drug Absorbed", "setting": "[1]; With TPIS (1 mA, 10 min/hr, 2000 Hz, square, on/off 4/1), 3.25 hrs", "value": 0.7815, "unit": "mcg/cm^2"},
      {"measurement": "Cumulative Amount of Drug Absorbed", "setting": "[1]; With TPIS (1 mA, 10 min/hr, 2000 Hz, square, on/off 4/1), 4.25 hrs", "value": 1.3235, "unit": "mcg/cm^2"},
      {"measurement": "Cumulative Amount of Drug Absorbed", "setting": "[1]; With TPIS (1 mA, 10 min/hr, 2000 Hz, square, on/off 4/1), 5.25 hrs", "value": 3.5600, "unit": "mcg/cm^2"}
    ]},
    {"smiles": "COc1ccc2c3c1O[C@H]1C(=O)CC[C@H]4[C@@H](C2)N(C)CC[C@]314", "note": "[Hydrocodone, hydrocodone]", "values": [
      {"measurement": "Skin Permeation Rate", "setting": "[2]; Control, pH 4.0", "value": 3.10, "unit": "mcg/cm^2 /hr"},
      {"measurement": "Skin Permeation Rate", "setting": "[2]; Control, pH 7.5, ± S.D.", "value": "4.75 ± 1.70", "unit": "mcg/cm^2 /hr"},
      {"measurement": "Tlag", "setting": "[2]; Control", "value": 5.17, "unit": "h"},
      {"measurement": "Skin Permeation Rate", "setting": "[2]; DC mode, 1 mA, 2 min hourly for 12 hours, pH 4.0", "value": 37.5, "unit": "mcg/cm^2 /hr"},
      {"measurement": "Skin Permeation Rate", "setting": "[2]; DC mode, 1 mA, 2 min hourly for 12 hours, pH 7.5, ± S.D.", "value": "7.61 ± 2.74", "unit": "mcg/cm^2 /hr"},
      {"measurement": "Tlag", "setting": "[2]; DC mode, 1 mA, 2 min hourly", "value": 0.72, "unit": "h"},
      {"measurement": "Tlag", "setting": "[2]; periodic wave mode, 2000 Hz, on/off 1/1, 1 mA", "value": 0.90, "unit": "h"},
      {"measurement": "Skin Permeation Rate", "setting": "[2]; periodic wave mode, square wave, 2000 Hz, on/off 1/1, 1 mA, 2 min hourly, pH 4.0", "value": 59.4, "unit": "mcg/cm^2 /hr"},
      {"measurement": "Skin Permeation Rate", "setting": "[2]; periodic wave mode, square wave, 2000 Hz, on/off 1/1, 1 mA, 2 min hourly, pH 7.5, ± S.D.", "value": "7.01 ± 1.16", "unit": "mcg/cm^2 /hr"}
    ]}
  ]
}
